Series [1] is described as follows: Volume of distribution at steady state in Wistar rat at 3 mg/kg, iv and 10 mg/kg, po. The format is ADME, organism-based. The settings on record: in vivo, read-out: Vdss.
For series [2], the target named is T1, Tyrosine-protein kinase SYK (Homo sapiens, UniProt P43405). Nature of the series: Inhibition of Syk in human whole blood assessed as inhibition of P-SLP76 in CD14+ monocytes by flow cytometry. (A flow cytometer gives signals particle by particle.)
Series [3] has as its target T1, Tyrosine-protein kinase SYK. Nature of the series: Inhibition of Syk in anti IgM-stimulated human Ramos cells assessed as BLNK phosphorylation by cellular assay.
In series [4] the test system is Rattus norvegicus. Nature of the series: Dose normalized AUC in Wistar rat at 10 mg/kg, po. The format is ADME, organism-based. On the set-up: dose 10 mg/kg, route oral. Particulars: in vivo.
Series [5] concerns the target T1, Tyrosine-protein kinase SYK. Nature of the series: Inhibition of Syk (unknown origin) using 4 uM peptide assessed as product formation after 60 mins incubation by microfluidic mobility shift assay.
The target of series [6] is Tyrosine-protein kinase Lyn (Homo sapiens, UniProt P07948). Nature of the series: Inhibition of Lyn (unknown origin).
Chain of Tyrosine-protein kinase Lyn (P07948 whole entry): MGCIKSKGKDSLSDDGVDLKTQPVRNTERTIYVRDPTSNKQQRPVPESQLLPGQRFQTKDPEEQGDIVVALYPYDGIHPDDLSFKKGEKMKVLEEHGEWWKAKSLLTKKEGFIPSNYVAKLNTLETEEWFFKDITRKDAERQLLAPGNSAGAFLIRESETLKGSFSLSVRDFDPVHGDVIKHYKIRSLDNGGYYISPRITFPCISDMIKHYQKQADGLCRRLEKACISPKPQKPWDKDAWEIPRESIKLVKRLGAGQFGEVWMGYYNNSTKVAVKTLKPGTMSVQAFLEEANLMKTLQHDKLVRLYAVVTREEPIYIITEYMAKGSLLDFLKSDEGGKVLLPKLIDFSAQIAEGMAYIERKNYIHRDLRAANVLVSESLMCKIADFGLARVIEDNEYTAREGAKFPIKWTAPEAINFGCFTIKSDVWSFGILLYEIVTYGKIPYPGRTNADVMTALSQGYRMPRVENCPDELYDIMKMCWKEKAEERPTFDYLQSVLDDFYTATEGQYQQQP
Series [7] is described as follows: Terminal half life Wistar rat at 3 mg/kg, iv and 10 mg/kg, po. The settings on record: in vivo, read-out: beta t1/2 (converted). It is filed as ADME, organism-based.
Another series concerns Bone marrow cell. Nature of the series: Inhibition of IL3 dependent proliferation in […] mouse bone marrow cells using [3H]thymidine by liquid scintillation counting. It is filed as functional, cell-based.
A short description of series [8]: Clearance in Wistar rat at 3 mg/kg, iv and 10 mg/kg, po. It is filed as ADME, organism-based. The settings on record: in vivo.
In series [9] the test system is Rattus norvegicus. Nature of the series: Dose normalized AUC in Wistar rat at 3 mg/kg, iv. The format is ADME, organism-based. Also on record: dose 3 mg/kg, route intravenous. Particulars: in vivo.
Series [10] concerns the target Tyrosine-protein kinase JAK2 (Homo sapiens, UniProt O60674). Nature of the series: Inhibition of JAK2 (unknown origin).
In series [11] the test system is Rattus norvegicus. Nature of the series: Cmax/dose in Wistar rat at 3 mg/kg, iv and 10 mg/kg, po. The format is ADME, organism-based. The settings on record: in vivo.
Series [12] concerns the target Voltage-gated inwardly rectifying potassium channel KCNH2 (Homo sapiens, UniProt Q12809). Nature of the series: Inhibition of human ERG by Q-patch assay.
Series [13] concerns the target T2, Receptor-type tyrosine-protein kinase FLT3 (Homo sapiens, UniProt P36888).
T2 sequence (P36888 whole entry): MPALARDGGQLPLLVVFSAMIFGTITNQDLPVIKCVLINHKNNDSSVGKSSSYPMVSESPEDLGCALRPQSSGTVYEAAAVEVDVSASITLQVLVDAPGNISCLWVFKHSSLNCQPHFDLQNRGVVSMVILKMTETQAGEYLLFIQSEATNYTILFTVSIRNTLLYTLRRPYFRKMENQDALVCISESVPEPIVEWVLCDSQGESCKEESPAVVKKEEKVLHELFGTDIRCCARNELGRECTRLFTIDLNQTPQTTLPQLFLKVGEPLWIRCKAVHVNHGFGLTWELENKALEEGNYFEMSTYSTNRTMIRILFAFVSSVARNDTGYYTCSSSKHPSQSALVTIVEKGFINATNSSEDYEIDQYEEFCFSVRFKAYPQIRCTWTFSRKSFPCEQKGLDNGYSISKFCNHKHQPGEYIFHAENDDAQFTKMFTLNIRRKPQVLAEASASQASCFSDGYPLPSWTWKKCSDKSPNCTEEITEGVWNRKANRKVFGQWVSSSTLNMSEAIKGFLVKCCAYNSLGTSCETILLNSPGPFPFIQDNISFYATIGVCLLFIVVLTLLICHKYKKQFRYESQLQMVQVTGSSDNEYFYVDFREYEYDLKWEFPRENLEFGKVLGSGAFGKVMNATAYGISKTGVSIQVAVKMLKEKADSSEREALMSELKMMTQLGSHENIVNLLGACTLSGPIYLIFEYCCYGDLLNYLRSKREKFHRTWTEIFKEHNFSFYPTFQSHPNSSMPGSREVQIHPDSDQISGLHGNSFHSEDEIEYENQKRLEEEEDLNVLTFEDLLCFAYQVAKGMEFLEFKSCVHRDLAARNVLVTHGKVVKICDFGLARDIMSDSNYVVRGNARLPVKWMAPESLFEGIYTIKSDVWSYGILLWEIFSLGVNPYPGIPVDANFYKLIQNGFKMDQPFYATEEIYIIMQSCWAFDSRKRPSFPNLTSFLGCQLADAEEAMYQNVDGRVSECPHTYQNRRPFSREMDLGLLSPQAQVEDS
Nature of the series: Inhibition of Flt3 (unknown origin).

The nature of series [14]: Plasma bioavailability in Wistar rat at 3 mg/kg, iv and 10 mg/kg, po. The format is ADME, organism-based.
Series [15] has as its target T3, Tyrosine-protein kinase ZAP-70 (Homo sapiens, UniProt P43403).
T3 sequence (P43403 whole entry): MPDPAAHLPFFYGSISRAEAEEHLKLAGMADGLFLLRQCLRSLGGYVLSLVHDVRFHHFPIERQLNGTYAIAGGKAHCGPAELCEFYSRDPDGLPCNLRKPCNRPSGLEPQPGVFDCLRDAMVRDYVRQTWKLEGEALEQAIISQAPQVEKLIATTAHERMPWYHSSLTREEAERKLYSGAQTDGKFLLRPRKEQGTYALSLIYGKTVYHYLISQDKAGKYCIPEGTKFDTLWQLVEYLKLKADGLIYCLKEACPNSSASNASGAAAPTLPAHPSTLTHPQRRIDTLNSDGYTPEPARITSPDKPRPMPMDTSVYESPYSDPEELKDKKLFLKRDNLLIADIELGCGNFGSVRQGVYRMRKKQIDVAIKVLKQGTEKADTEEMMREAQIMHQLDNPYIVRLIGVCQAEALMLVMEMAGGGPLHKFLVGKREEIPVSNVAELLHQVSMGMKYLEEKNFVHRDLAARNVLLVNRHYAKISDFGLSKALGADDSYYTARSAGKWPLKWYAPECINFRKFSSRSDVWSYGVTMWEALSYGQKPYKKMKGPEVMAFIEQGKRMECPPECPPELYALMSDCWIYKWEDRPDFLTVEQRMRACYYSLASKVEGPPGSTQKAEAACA
Nature of the series: Inhibition of ZAP70 (unknown origin).

A short description of series [16]: Half life in rat liver microsomes. It is filed as ADME. Particulars: liver microsomes. A general note: Liver microsomes are a subcellular fraction often used to study metabolism.

Each structure is given as a SMILES string.

Chain of Tyrosine-protein kinase JAK2 (O60674 whole entry): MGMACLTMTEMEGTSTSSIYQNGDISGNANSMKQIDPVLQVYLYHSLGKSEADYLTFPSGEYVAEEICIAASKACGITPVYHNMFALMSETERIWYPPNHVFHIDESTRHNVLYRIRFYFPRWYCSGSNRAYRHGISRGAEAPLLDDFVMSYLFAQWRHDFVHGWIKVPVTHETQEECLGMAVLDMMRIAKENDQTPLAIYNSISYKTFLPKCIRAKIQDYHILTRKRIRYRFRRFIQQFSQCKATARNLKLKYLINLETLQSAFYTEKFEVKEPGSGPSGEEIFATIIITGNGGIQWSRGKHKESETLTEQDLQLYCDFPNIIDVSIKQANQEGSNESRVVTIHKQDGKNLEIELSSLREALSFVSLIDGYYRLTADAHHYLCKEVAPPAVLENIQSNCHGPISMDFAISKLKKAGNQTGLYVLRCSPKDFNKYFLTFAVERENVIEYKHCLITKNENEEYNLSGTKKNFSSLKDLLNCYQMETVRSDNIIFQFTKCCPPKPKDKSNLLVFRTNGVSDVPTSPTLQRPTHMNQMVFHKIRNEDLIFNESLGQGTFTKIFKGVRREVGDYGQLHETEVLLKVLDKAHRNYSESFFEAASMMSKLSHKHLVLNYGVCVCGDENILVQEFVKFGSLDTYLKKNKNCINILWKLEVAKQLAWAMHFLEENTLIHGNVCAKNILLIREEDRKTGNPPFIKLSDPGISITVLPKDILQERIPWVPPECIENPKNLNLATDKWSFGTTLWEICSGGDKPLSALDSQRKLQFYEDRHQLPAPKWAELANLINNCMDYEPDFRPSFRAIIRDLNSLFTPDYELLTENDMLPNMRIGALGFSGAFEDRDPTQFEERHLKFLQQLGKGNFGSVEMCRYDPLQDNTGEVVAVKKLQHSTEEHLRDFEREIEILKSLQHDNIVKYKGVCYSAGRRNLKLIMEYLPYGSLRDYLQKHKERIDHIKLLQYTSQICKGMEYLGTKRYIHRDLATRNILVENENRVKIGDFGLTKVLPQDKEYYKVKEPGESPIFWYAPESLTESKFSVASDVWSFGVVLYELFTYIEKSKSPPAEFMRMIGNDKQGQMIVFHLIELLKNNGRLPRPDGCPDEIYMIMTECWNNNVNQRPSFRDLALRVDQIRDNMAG
Chain of Voltage-gated inwardly rectifying potassium channel KCNH2 (Q12809 whole entry): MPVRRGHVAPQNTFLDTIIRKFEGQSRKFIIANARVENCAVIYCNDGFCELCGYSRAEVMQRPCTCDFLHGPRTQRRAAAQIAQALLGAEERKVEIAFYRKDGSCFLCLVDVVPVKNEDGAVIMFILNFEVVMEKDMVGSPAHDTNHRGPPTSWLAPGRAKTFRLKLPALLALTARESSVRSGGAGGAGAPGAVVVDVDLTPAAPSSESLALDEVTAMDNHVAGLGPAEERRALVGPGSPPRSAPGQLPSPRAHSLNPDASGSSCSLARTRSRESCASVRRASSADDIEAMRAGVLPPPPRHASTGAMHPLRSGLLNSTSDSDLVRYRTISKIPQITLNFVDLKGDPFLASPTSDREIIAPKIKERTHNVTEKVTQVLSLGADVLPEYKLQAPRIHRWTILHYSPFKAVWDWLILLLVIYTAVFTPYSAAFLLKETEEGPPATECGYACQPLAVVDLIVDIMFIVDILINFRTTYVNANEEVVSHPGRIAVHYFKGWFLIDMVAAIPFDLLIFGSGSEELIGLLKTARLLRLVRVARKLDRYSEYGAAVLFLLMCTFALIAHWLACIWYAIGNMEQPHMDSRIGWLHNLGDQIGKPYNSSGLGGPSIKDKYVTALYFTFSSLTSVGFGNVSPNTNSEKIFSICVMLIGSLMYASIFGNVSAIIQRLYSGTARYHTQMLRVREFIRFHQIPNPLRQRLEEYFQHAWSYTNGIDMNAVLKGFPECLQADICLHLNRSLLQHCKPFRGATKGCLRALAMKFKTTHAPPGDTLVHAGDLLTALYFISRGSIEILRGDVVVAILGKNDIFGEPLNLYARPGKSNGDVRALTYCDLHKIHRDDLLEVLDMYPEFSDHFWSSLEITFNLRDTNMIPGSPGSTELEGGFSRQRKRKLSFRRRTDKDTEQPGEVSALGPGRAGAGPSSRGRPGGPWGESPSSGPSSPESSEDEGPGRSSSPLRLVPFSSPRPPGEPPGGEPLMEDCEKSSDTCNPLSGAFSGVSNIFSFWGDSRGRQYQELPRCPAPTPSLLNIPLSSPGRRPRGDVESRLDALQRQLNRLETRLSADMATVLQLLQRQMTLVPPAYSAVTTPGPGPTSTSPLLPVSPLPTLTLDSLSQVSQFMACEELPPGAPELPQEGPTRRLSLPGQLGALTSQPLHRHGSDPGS

For `N[C@H]1COCC[C@H]1Nc1cc2cc[nH]c(=O)c2c(Nc2cccc3cc[nH]c23)n1`, in series [1], the Vd was 18 L/kg. The half-inhibitory concentration (IC50) in series [2] stood at 433 nM; in series [3], 55 nM; in [5], 22 nM; in series [6] it was 1200 nM; with Bone marrow cell it was 3510 nM; in series [10], 680 nM. Also, the half-inhibitory concentration (IC50) is 24900 nM in series [12], 20 nM in [13] and 340 nM in [15]. Besides, the AUC/dose in the series with Rattus norvegicus [4] stood at 19 nM·h; with Rattus norvegicus [9], 299 nM·h. Also, the figures for the half-life in series [7] and in [16] were 2.1 h and 0.833 h, respectively. Further, the clearance in series [8] was 142 mL/min/kg. In the series with Rattus norvegicus [11], this compound gave a Cmax/dose of 2 nM. This compound also yielded a bioavailability in [14] of 7%.

As a reminder, the IC50 is the concentration at which inhibition is half-maximal. As usually defined, the bioavailability is dose-corrected exposure relative to a reference, in per cent. A high value points to good availability.

The record behind these values is ChEMBL document CHEMBL3259804, “Syk inhibitors with high potency in presence of blood” (Bioorg Med Chem Lett, 2014).
